Test results published in patent US20260199213A1, “PEPTIDE HAVING ACTIVITY OF IMPROVING STATE OF SKIN, AND USE THEREOF” (CAREGEN CO., LTD., priority 2022, published 2026).

Experiments:
MMP-1 [1] = experiment: MMP-1 expression increased by ultraviolet rays in HaCaT cells (western blot); type: cell-based; conditions: 20 mJ/cm^2 UV, 10 μM, 50 μM or 1000 μM peptide, 24 hours, FIG. 15
Description: (§1) It has been reported that MMP-1 (matrix metalloproteinase-1) promotes the decomposition of collagen and the reduction of elastin in the dermis layer, thereby creating wrinkles and causing a decrease in elasticity in the skin. Accordingly, in this example, the aim was to confirm the effect of the peptide according to an embodiment on improving extrinsic skin aging, including improving wrinkles and increasing elasticity, etc., by evaluating the change in the expression level of MMP-1 increased by ultraviolet irradiation.
(§2) Specifically, NIH3T3 cells or HaCaT cells were seeded in a 6-well plate at a density of 5×10^5 cells/well and cultured for 24 hours. Next, the cells were washed once with serum-free DMEM media, and 10 μM, 50 μM or 1000 μM of the peptide consisting of the amino acid sequence of SEQ ID NO: 1 was dispensed into 1 mL of the serum-free media, and cultured in a CO2 incubator at 37° C. for 1 hour. Next, the above culture was transferred to an e-tube, mixed with 1 ml of PBS, and dispensed into a well plate. Next, using a UV irradiator (VILBER LOURMAT, Cat No.: 3102-BSU, France), 6 J/cm^2 ultraviolet rays were irradiated to NIH3T3 cells, and 20 mJ/cm^2 ultraviolet rays were irradiated to HaCaT cells. […] Next, MMP-1 was detected using […]. […]

B16F10 cells = experiment: Melanin production in α-MSH-stimulated B16F10 cells; type: cell-based, mouse; conditions: 200 ng/ml α-MSH, 50 μM or 100 μM peptide, 72 hours, absorbance at 450 nm
Description: B16F10 cells, a mouse melanoma cell line, were seeded at a density of 5×10^4 cells/well in a 6-well plate and cultured for 16 hours. Next, the culture medium was replaced with a medium including a 2% serum, and 200 ng/ml of α-MSH (α-melanocyte-stimulating hormones) was added to promote melanin production, in addition, 50 μM or 100 μM of each peptide consisting of the amino acid sequence of SEQ ID NO: 1 was added, and then cultured for 72 hours. Next, the cultured cells were dissolved with 1N NaOH and the absorbance at 450 nm was measured. Meanwhile, an untreated group (Con) was used as the control group, a group to which only α-MSH was added was used as the negative control group, a group to which the peptide consisting of the amino acid sequence of SEQ ID NO: 2 or 3 and α-MSH were added (50 μM, 100 μM) as the comparison group, and a group to which Arbutin (200 μM, 500 μM), known as a skin whitening agent, and α-MSH were added was used as the positive control group.

MMP-1 [2] = experiment: MMP-1 expression increased by ultraviolet rays in NIH3T3 cells (western blot); type: cell-based; conditions: 6 J/cm^2 UV, 10 μM, 50 μM or 1000 μM peptide, 24 hours, FIG. 14
Description: as §1, §2

SIRT-1 = SIRT-1 expression reduced by ultraviolet rays in HaCaT cells (RT-PCR); type: cell-based; conditions: 15 mJ/cm^2 UV, 10 μM, 50 μM or 1000 μM peptide, 8 hours
Description: In this example, the aim was to confirm the effect of the peptide according to an embodiment on the recovery of skin barrier factors in damaged skin cells by evaluating changes in the levels of skin barrier factors in skin cells reduced by ultraviolet irradiation.
Specifically, HaCaT cells were seeded in a 6-well plate at a density of 5×10^5 cells/well and cultured for 24 hours. Next, the cells were washed once with serum-free DMEM media, and 10 μM, 50 μM or 1000 μM of the peptide consisting of the amino acid sequence of SEQ ID NO: 1 was dispensed into 1 mL of the serum-free media, and cultured in a CO2 incubator at 37° C. for 1 hour. Next, the above culture was transferred to an e-tube, mixed with 1 ml of PBS, and dispensed into a well plate. Next, using a UV irradiator (VILBER LOURMAT, Cat No.: 3102-BSU, France), 15 mJ/cm^2 ultraviolet rays were irradiated to the HaCaT cells. Next, the PBS in the well plate was removed, 900 μL of the culture medium in which the peptides were dispensed was added, and the plate was cultured in a CO2 incubator at 37° C. for 8 hours. Next, the culture was washed twice with PBS, and RNA was isolated from the culture using easy blue (iNtRON, Cat. No.: 17061, Korea). Next, using an RT kit (Enzynomics, Cat. NO.: RT200, Korea), the isolated RNA was reverse transcribed to synthesize the respective cDNA. […]

For GPRGDP [SEQ ID NO: 1], the “expression of MMP-1 increased by ultraviolet irradiation” value (MMP-1 [1]) was “reduced or restored”, the melanin production (B16F10 cells) was “decreased” and the “expression of MMP-1 increased by ultraviolet irradiation” value (MMP-1 [2]) was “reduced or restored”. The “expression of SIRT-1 reduced by ultraviolet irradiation” value (SIRT-1) was “increased or restored”.
